Results on 6 compounds are retold here after PMC6883931 (Frontiers in Molecular Neuroscience, 2019).

Each structure is given as a SMILES string. Several values for one entry are separate records, joined by “and”; a condition that tells them apart may be missing. Equal values may be shown once. Read-outs that look alike come from different tables or passages of the source.

Data set [1] deals with T1, recombinant α3L GlyRs expressed in HEK293 cells (Homo sapiens, UniProt O75311).
T1 construct: expressed in transfected cells; host or cells: HEK293
T1 sequence (O75311 34-464): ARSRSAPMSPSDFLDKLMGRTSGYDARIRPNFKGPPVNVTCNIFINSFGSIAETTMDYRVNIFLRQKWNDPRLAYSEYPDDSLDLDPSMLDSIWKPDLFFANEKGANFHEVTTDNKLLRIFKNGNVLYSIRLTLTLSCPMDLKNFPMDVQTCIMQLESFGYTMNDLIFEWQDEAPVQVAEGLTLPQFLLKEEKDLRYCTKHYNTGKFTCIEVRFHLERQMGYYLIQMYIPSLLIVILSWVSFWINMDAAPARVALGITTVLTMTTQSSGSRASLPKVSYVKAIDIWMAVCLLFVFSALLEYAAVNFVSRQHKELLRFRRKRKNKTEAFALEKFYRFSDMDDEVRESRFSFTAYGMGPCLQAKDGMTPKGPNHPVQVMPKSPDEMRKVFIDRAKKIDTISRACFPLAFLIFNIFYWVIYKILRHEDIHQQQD
Briefly: Whole-cell patch-clamp recordings of GlyR-transfected HEK293 cells. It is filed as cell-based. The note with it: for IC50: IC50 of strychnine inhibition; for IC50 / Ki: 60 μM glycine; for IC50 / EC50: n = 7 cells; for Ki: Ki of strychnine (Cheng-Prusoff); for EC50: mean ± SEM, read-out: EC50 of glycine-induced currents. On the technique in general: Patch clamp records ionic current or voltage across a cell membrane.
Description: Current responses from GlyR-transfected HEK293 cells were measured at room temperature (21–23°C) at a holding potential of −50 mV using a HEKA EPC10 amplifier (HEKA Electronics, Lambrecht, Germany) controlled by Pulse software (HEKA Electronics). Recording pipettes were pulled from borosilicate glass (World Precision Instruments, Berlin, Germany) using a Sutter P-97 horizontal puller (Sutter, Novato, CA, USA). Solutions were applied using an Octaflow system (NPI electronics, Tamm, Germany). The external buffer consisted of 135 mM NaCl, 5.5 mM KCl, 2 mM CaCl2, 1.0 mM MgCl2, and 10 mM Hepes (pH adjusted to 7.4 with NaOH); the internal buffer was 140 mM CsCl, 1.0 mM CaCl2, 2.0 mM MgCl2, 5.0 mM EGTA, and 10 mM Hepes (pH adjusted to 7.2 with CsOH). […] Dose-response data were fitted to the Hill equation (see Supplementary Material) to determine EC50 and IC50.
Ki was calculated using the Cheng-Prusoff correction, significance was tested using one-way ANOVA with p < 0.05 considered significant. […] All data are means ± SEM; significance levels (relative to control) are indicated: *p ≤ 0.5; **p ≤ 0.01; ns, not significant.
Cell Culture and Transfection – HEK293 cells were grown in 10 cm tissue culture Petri dishes in Eagle minimal essential medium (EMEM) (Lonza, Basel, Switzerland) supplemented with 10% FBS (Invitrogen, Karlsruhe, Germany) and penicillin/streptomycin (Sigma-Aldrich, Munich, Germany) at 5% CO2 and 37 °C in a water saturated atmosphere. For electrophysiological experiments, cells were plated on acetone treated glass coverslips in 24 well plates. Transfection was performed 1 day after cell passage using polyethyleneimine (PEI) (Sigma-Aldrich, Munich, Germany): 0.75 µg of receptor DNA and 1.0 µg of green fluorescent protein DNA were mixed in 50 µl EMEM; in a second Eppendorf tube, 3.5 µl PEI was added to 50 µl EMEM, mixed and combined with the DNA solution. After 20 min incubation at room temperature, the transfection solution was added dropwise to the cells. Measurements were performed 1-3 days after transfection.
Electrophysiological Recordings and Data Analysis – Current responses from GlyR-transfected HEK293 cells were measured at room temperature (21-23°C) at a holding potential of -50 mV. Whole-cell recordings were performed using a HEKA EPC10 amplifier (HEKA Electronics, Lambrecht, Germany) controlled by Pulse software (HEKA Electronics). Recording pipettes were pulled from borosilicate glass (World Precision Instruments, Berlin, Germany) using a Sutter P-97 horizontal puller (Sutter, Novato, CA).

In data set [2] the test system is Male Swiss Webster mice. Briefly: Tactile sensitivity (von Frey) test, paw withdrawal threshold. It is filed as in vivo. The note with it: for PWT ratio: individual mice and avg. Here is the method:
(§1) See Supplementary Material S1 for experimental details. On the day of the experiment, mice were weighed and then fasted for 5–6 h to reduce variability in initial blood glucose levels (BGL). Mice had been accustomed to the test apparatus for 2–3 h on two separate days before experiments. Two hours before testing, mice were acclimatized to the measuring apparatus. For hotplate tests, mice were accustomed to the testing condition by placing them one by one on a switched off hotplate at room temperature for the set cut off time of 30 s. One hour before testing, baseline measurements for touch sensitivity were recorded. For both experiments, mice were then injected according to protocol. Blood glucose level was measured before and after injections (Figure 3A).
Mice were divided into four experimental groups (see main text). The investigator performing the measurements was blinded to treatment groups and to the blood glucose readings. All mice were measured for their Paw withdrawal threshold (PWT) using von Frey filaments on at least one occasion before the testing day to reduce the stress or surprise from the experiment. We used the up-and-down method to determine pain withdrawal thresholds (PWT; Bradman et al., [2015]) with 8 mN as the starting value (see Supplementary Material for details). Baseline PWT values for each mouse were determined before treatment. […] Measurements were limited to the time window of 5 min after the second injection (strychnine or vehicle) due to the fast elimination kinetics of low doses of strychnine.
• (i) Baseline PWT determination for each mouse, 30 min prior to the experiment; • (ii) at time t = 0, mice were injected with glucose (2 g/kg) or vehicle • (iii) at t = 30 min, mice were injected with strychnine (0.2 or 0.5 mg/kg) or vehicle; • (iv) at t = 35 min pain-related behavior was assessed.
Von Frey Experiment – The investigator performing the measurements was blinded to treatment groups and to the blood glucose readings. All mice were measured for their paw withdrawal threshold using the Von Frey filaments on at least one occasion before the testing day. That was done to reduce the stress or surprise that might result from exposure to new conditions on the day of the experiment. A baseline reading for each mouse is also taken before the test with the consideration to leave at least one-day gab between baseline and experiment measurement to minimize any effect of repetitive measurement. […]
We used the up-and-down method to determine pain withdrawal thresholds (PWT) (Bradman et al., 2015). To assess the starting force, baseline 50% PWT was measured in five naïve mice (20-35 g) by application of von Frey hairs in an ascending order of their applied force. […] Baseline PWT values for each mouse were determined before treatment. […]

Data set [3] has as its system Male Swiss Webster mice. Briefly: Hotplate test (55°C), latency until pain-related reaction. Format: in vivo. Here is the method: as §1
The investigator performing the measurements was blinded to treatment groups and to the blood glucose readings.

In a further data set the test system is mice. The note with it: cited from earlier work; for LD50: mice, Patocka, 2009.
The test system of data set [4] is recombinant α1, α1-β, and α3 GlyRs. Details: method as in Breitinger et al., 2015; Breitinger and Breitinger, 2016. The note with it: HEK293 cells, ref Breitinger et al., 2015, 2016; cited from earlier work.
For the next data set, the system named is GlyR. Details: method as in Breitinger et al., 2016. The note with it: ref Breitinger et al., 2016, cited from earlier work; for EC50: read-out: EC50 for augmentation of glycine-mediated responses; for on-rate of current enhancement: saturating concentrations.

In general, IC50 refers to the concentration at which inhibition is half-maximal. For orientation: Ki means a measure of affinity in units of concentration, obtained from inhibition or displacement. Broadly, the LD50 is the dose expected to kill half of the subjects tested. Take `O=C1C[C@@H]2OCC=C3CN4CC[C@]56c7ccccc7N1[C@H]5[C@H]2[C@H]3C[C@H]46` [Strychnine, strychnine]: the results for the IC50 in data set [1] (absence of glucose) and in data set [1] (cells preincubated with 50 mM glucose) were 0.0307 ± 0.0028 µM and 0.0462 ± 0.0058 µM, respectively. Besides, the Ki amounted to 0.0198 ± 0.0016 µM in data set [1] (cells pretreated with 50 mM glucose) and 0.0188 ± 0.0014 µM in data set [1] (control cells). Moreover, the PWT ratio is 0.98 and 0.73 and 0.48 and 0.62 and 0.87 and 0.24 and 0.76 and 0.15 in the data set with Male Swiss Webster mice [2] (no glucose – Strychnine 0.2 mg/kg); 0.17 and 1.46 and 0.19 and 0.30 and 0.14 in the data set with Male Swiss Webster mice [2] (no glucose – Strychnine 0.5 mg/kg). The “time after which notable effects on pain sensitivity were gone” value with Male Swiss Webster mice [2] (sub-lethal amounts of strychnine, IP) is recorded as above 5 min. Further, the “normalized time to response” value with Male Swiss Webster mice [3] (strychnine 0.2 mg/kg IP, no glucose) was 0.63 ± 0.10. In addition, the normalized response time in the data set on Male Swiss Webster mice [3] (strychnine 0.5 mg/kg IP, no glucose) is reported as 0.30 ± 0.07. Also, the lethality with mice (2 mg/kg IP, Swiss Webster mice, ref Maher et al., 2014) is recorded as 85%. Also, the 50% lethal dose (LD50) in the data set on mice (intraperitoneal (IP) injection, ref Prasad et al., 1981) is 0.98 mg/kg; with mice (oral administration, ref Setnikar et al., 1960), 2 mg/kg.
As usually defined, the EC50 is the concentration that produces a half-maximal response. Turning to `OC[C@H]1OC(O)[C@H](O)[C@@H](O)[C@@H]1O` (stereo partly shown) [Glucose, glucose], in the data set with Male Swiss Webster mice [2] (glucose 2 g/kg IP), the “time after which effects on pain-related behavior were fully developed” value was 20 min. The “average normalized latency time” value in the data set on Male Swiss Webster mice [3] (glucose 2 g/kg IP, no strychnine, normalized to baseline, mean ± SEM) is 1.79 ± 0.18. Moreover, the normalized response time in the data set with Male Swiss Webster mice [3] (glucose 2 g/kg pretreatment followed by 0.2 mg/kg strychnine) was 1.72 ± 0.44; with Male Swiss Webster mice [3] (glucose 2 g/kg prior to 0.5 mg/kg strychnine challenge), 0.74 ± 0.15. Besides, the “reduction of EC50 value” in data set [4] is 2–4 fold. Further, in the data set with GlyR, the EC50 was 6000 to 7000 µM. Moreover, in the data set with GlyR, the “on-rate of current enhancement” value was below 0.5 h.
For `O=C(CO)[C@@H](O)[C@H](O)[C@H](O)CO` [Fructose, fructose], in the data set with GlyR, the half-maximal effective concentration (EC50) is 6000 to 7000 µM and the “on-rate of current enhancement” value was below 0.5 h.
As for `OC[C@H]1O[C@@](CO)(O[C@H]2O[C@H](CO)[C@@H](O)[C@H](O)[C@H]2O)[C@@H](O)[C@@H]1O` [Sucrose, sucrose], the “on-rate of current enhancement” value in the data set with GlyR is reported as ~ 1.5 h.
Consider `OC[C@H]1O[C@@H](O[C@H]2[C@H](O)[C@@H](O)C(O)O[C@@H]2CO)[C@H](O)[C@@H](O)[C@H]1O` (mixture of isomers) [Lactose, lactose], for which, in the data set with GlyR, the “on-rate of current enhancement” value was ~ 1.5 h.
`NCC(=O)O` [Glycine, glycine]: the EC50 in data set [1] (after overnight preincubation with 50 mM glucose) worked out at 49.9 ± 5.3 µM; in data set [1] (control, no glucose preincubation (5.5 mM glucose in medium)) it was 106 ± 16 µM.
